From patent US20240368120A1 (Terns Pharmaceuticals, Inc., priority 2023, published 2024)

Target: T1, human GLP-1R receptor (Homo sapiens, UniProt P43220)
T1 construct: expressed in transfected cells
Experiment: GLP-1R low expression cell assay (cAMP TR-FRET, CHO-K1_hGLP-1Rlow_clone10 cells)
Format: cell-based
Details: for EC50: cAMP TR-FRET, 30 min at 25° C.; for Emax: maximum activation relative to control GLP-1 peptide agonist
Procedure, shortened: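 CHO-K1 cells stably expressing low surface human GLP-1R (clone10), 1,000 cells/well, exposed to 10-point 3-fold compound dilutions for 30 min at 25 °C. cAMP measured by TR-FRET (Eu-cAMP tracer/ULight-anti-cAMP, 15 min). EC50 from Hill fit of duplicate percent activation relative to a parallel GLP-1 control agonist.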

T1 sequence (P43220 24-463): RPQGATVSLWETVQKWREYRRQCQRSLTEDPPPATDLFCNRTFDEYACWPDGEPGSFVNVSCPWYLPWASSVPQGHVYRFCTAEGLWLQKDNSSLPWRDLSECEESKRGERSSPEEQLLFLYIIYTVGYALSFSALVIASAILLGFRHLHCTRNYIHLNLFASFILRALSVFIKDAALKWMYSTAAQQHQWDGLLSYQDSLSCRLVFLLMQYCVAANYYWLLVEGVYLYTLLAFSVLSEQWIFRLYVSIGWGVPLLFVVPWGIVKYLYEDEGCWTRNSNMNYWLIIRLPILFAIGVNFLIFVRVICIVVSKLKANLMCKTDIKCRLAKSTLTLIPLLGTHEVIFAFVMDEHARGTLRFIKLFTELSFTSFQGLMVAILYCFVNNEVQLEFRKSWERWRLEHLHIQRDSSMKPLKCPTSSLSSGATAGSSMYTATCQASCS

EC50 [nM]	Emax [%]	SMILES
100 to 1000	> 85	Cn1c(CN2CCC(c3cccc(OCc4ccc(Cl)cc4F)n3)CC2)nc2c(NCCF)cc(C(=O)O)cc21 [Compound 186, 2-((4-(6-((4-Chloro-2-fluorobenzyl)oxy)pyridin-2-yl)piperidin-1-yl)methyl)-4-((2-fluoroethyl)amino)-1-methyl-1H-benzo[d]imidazole-6-carboxylic acid]
> 1000	25 to 50	Cn1c(CN2CCC(c3cccc(OCc4ccc(Cl)cc4F)n3)CC2)nc2c(OC(F)F)cc(-c3nnc(C(F)(F)F)[nH]3)cc21 [Compound 232, 2-((4-(6-((4-Chloro-2-fluorobenzyl)oxy)pyridin-2-yl)piperidin-1-yl)methyl)-4-(difluoromethoxy)-1-methyl-6-(5-(trifluoromethyl)-4H-1,2,4-triazol-3-yl)-1H-benzo[d]imidazole]
< 10	> 85	COCCn1c(CN2CCC(c3cccc(OCc4ccc(C#N)cc4F)n3)CC2)nc2c(OC(F)F)cc(C(=O)O)cc21 [Compound 106, 2-((4-(6-((4-Cyano-2-fluorobenzyl)oxy)pyridin-2-yl)piperidin-1-yl)methyl)-4-(difluoromethoxy)-1-(2-methoxyethyl)-1H-benzo[d]imidazole-6-carboxylic acid]
< 10	> 85	N#Cc1ccc(COc2cccc(C3CCN(Cc4nc5c(O)nc(C(=O)O)cc5n4C[C@@H]4CCO4)CC3)n2)c(F)c1 [Compound 143, (S)-2-((4-(6-((4-Cyano-2-fluorobenzyl)oxy)pyridin-2-yl)piperidin-1-yl)methyl)-4-hydroxy-1-(oxetan-2-ylmethyl)-1H-imidazo[4,5-c]pyridine-6-carboxylic acid]
10 to 100	> 85	C[C@@H](F)Oc1cc(C(=O)O)cc2c1nc(CN1CCC(c3cccc(OCc4ccc(Cl)cc4F)n3)CC1)n2C (single isomer, unassigned) [Compound 361]
10 to 100	> 85	Cc1ccc(COc2c(F)cccc2C2CCN(Cc3nc4c(OC(F)F)cc(C(=O)O)cc4n3C)CC2)c(F)c1 [Compound 139, 4-(Difluoromethoxy)-2-((4-(3-fluoro-2-((2-fluoro-4-methylbenzyl)oxy)phenyl)piperidin-1-yl)methyl)-1-methyl-1H-benzo[d]imidazole-6-carboxylic acid]
10 to 100	> 85	CCOc1cc(-c2cc(=O)[nH]o2)cc2c1nc(CN1CCC(c3cccc(OCc4ccc(C#N)cc4F)n3)CC1)n2C [Compound 384, 4-(((6-(1-((4-Ethoxy-1-methyl-6-(3-oxo-2,3-dihydroisoxazol-5-yl)-1H-benzo[d]imidazol-2-yl)methyl)piperidin-4-yl)pyridin-2-yl)oxy)methyl)-3-fluorobenzonitrile]
< 10	> 85	CCOc1cc(-c2nnn[nH]2)cc2c1nc(CN1CCC(c3cccc(OCc4ccc(C#N)cc4F)n3)CC1)n2C [Compound 273, 4-(((6-(1-((4-ethoxy-1-methyl-6-(1H-tetrazol-5-yl)-1H-benzo[d]imidazol-2-yl)methyl)piperidin-4-yl)pyridin-2-yl)oxy)methyl)-3-fluorobenzonitrile]
10 to 100	> 85	Cn1c(CN2CCC(c3cccc(OCc4ccc(Cl)cc4F)n3)CC2)nc2c(OC(F)F)cc(C(=O)O)c(F)c21 [Compound 190, 2-((4-(6-((4-Chloro-2-fluorobenzyl)oxy)pyridin-2-yl)piperidin-1-yl)methyl)-4-(difluoromethoxy)-7-fluoro-1-methyl-1H-benzo[d]imidazole-6-carboxylic acid]
10 to 100	> 85	Cn1c(CN2CCC(c3cccc(OCc4ccc(C5CC5)cc4F)n3)CC2)nc2c(OC(F)F)cc(C(=O)O)cc21 [Compound 365, 2-((4-(6-((4-Cyclopropyl-2-fluorobenzyl)oxy)pyridin-2-yl)piperidin-1-yl)methyl)-4-(difluoromethoxy)-1-methyl-1H-benzo[d]imidazole-6-carboxylic acid]
> 1000	50 to 85	Cn1c(CN2CCC(c3cccc(OCc4ccc(Cl)cc4F)n3)CC2)nc2c(O)c(C(=O)O)ccc21 [Compound 345, 2-((4-(6-((4-Chloro-2-fluorobenzyl)oxy)pyridin-2-yl)piperidin-1-yl)methyl)-4-hydroxy-1-methyl-1H-benzo[d]imidazole-5-carboxylic acid]
10 to 100	> 85	Cn1c(CN2CCC(Oc3cccc(COc4ccc(C#N)cc4F)n3)CC2)nc2c(OC(F)F)cc(C(=O)O)cc21 [Compound 149, 2-((4-((6-((4-Cyano-2-fluorophenoxy)methyl)pyridin-2-yl)oxy)piperidin-1-yl)methyl)-4-(difluoromethoxy)-1-methyl-1H-benzo[d]imidazole-6-carboxylic acid]
> 1000	< 25	Cn1c(CN2CCC(c3ccc4c(c3)N(Cc3ccc(Cl)cc3F)C(=O)CO4)CC2)nc2c(OC(F)F)cc(C(=O)O)cc21 [Compound 193, 2-((4-(4-(4-chloro-2-fluorobenzyl)-3-oxo-3,4-dihydro-2H-benzo[b][1,4]oxazin-6-yl)piperidin-1-yl)methyl)-4-(difluoromethoxy)-1-methyl-1H-benzo[d]imidazole-6-carboxylic acid]
10 to 100	> 85	CCOc1cc(C(=O)O)cc2c1nc(CN1CCC(c3cccc4c3OC[C@H](c3ccc(Cl)cc3F)O4)CC1)n2C [Compound 270, (S)-2-((4-(2-(4-Chloro-2-fluorophenyl)-2,3-dihydrobenzo[b][1,4]dioxin-5-yl)piperidin-1-yl)methyl)-4-ethoxy-1-methyl-1H-benzo[d]imidazole-6-carboxylic acid]
100 to 1000	> 85	COCCOc1cc(C(=O)O)cc2c1nc(CN1CCC(c3cccc4c3O[C@](C)(c3ccc(Cl)cn3)O4)CC1)n2Cc1cncs1 [Compound 3, (R)-2-((4-(2-(5-Chloropyridin-2-yl)-2-methylbenzo[d][1,3]dioxol-4-yl)piperidin-1-yl)methyl)-4-(2-methoxyethoxy)-1-(thiazol-5-ylmethyl)-1H-benzo[d]imidazole-6-carboxylic acid]
100 to 1000	> 85	Cn1c(CN2CCC(c3cccc(OCc4ccccc4Cl)n3)CC2)nc2c(OC(F)F)cc(C(=O)O)cc21 [Compound 248, 2-((4-(6-((2-Chlorobenzyl)oxy)pyridin-2-yl)piperidin-1-yl)methyl)-4-(difluoromethoxy)-1-methyl-1H-benzo[d]imidazole-6-carboxylic acid]
< 10	> 85	N#Cc1ccc(COc2cccc(C3CCN(Cc4nc5c(OC(F)F)cc(C(=O)O)cc5n4CC4(C#N)CC4)CC3)n2)c(F)c1 [Compound 105, 2-((4-(6-((4-Cyano-2-fluorobenzyl)oxy)pyridin-2-yl)piperidin-1-yl)methyl)-1-((1-cyanocyclopropyl)methyl)-4-(difluoromethoxy)-1H-benzo[d]imidazole-6-carboxylic acid]
< 10	> 85	[2H]C([2H])([2H])Oc1cc(C(=O)O)cc2c1nc(CN1CCC(c3cccc(OCc4ccc(C#N)cc4F)n3)CC1)n2C [Compound 349, 2-((4-(6-((4-Cyano-2-fluorobenzyl)oxy)pyridin-2-yl)piperidin-1-yl)methyl)-4-(methoxy-d3)-1-methyl-1H-benzo[d]imidazole-6-carboxylic acid]
100 to 1000	> 85	Cn1c(CN2CCC(c3cccc(OCc4ccc(C#N)cc4F)n3)CC2)nc2c3c(c(C(=O)O)cc21)OCCO3 [Compound 289, 2-((4-(6-((4-Cyano-2-fluorobenzyl)oxy)pyridin-2-yl)piperidin-1-yl)methyl)-3-methyl-7,8-dihydro-3H-[1,4]dioxino[2′,3′:3,4]benzo[1,2-d]imidazole-5-carboxylic acid]
100 to 1000	> 85	Cn1c(CN2CCC(c3ccnnc3OCc3ccc(Cl)cc3F)CC2)nc2c(OC(F)F)cc(C(=O)O)cc21 [Compound 355, 2-((4-(3-((4-Chloro-2-fluorobenzyl)oxy)pyridazin-4-yl)piperidin-1-yl)methyl)-4-(difluoromethoxy)-1-methyl-1H-benzo[d]imidazole-6-carboxylic acid]
> 1000	50 to 85	Cn1c(CN2CCC(c3cc(OCc4ccc(C#N)cc4F)ccc3F)CC2)nc2c(OC(F)F)cc(C(=O)O)cc21 [Compound 181, 2-((4-(5-((4-Cyano-2-fluorobenzyl)oxy)-2-fluorophenyl)piperidin-1-yl)methyl)-4-(difluoromethoxy)-1-methyl-1H-benzo[d]imidazole-6-carboxylic acid]
100 to 1000	> 85	Cn1c(CN2CCC(c3cccc(OCc4ccc(C#N)cc4F)n3)CC2)nc2c(N3CCOCC3)cc(C(=O)O)cc21 [Compound 112, 2-((4-(6-((4-cyano-2-fluorobenzyl)oxy)pyridin-2-yl)piperidin-1-yl)methyl)-1-methyl-4-morpholino-1H-benzo[d]imidazole-6-carboxylic acid]
> 1000	< 25	Cn1c(CN2CCC(c3cccc(OCc4ccc(Cl)cc4F)n3)CC2)nc2c(OC(F)F)cc(-c3n[nH]c(=O)o3)cc21 [Compound 234, 5-(2-((4-(6-((4-Chloro-2-fluorobenzyl)oxy)pyridin-2-yl)piperidin-1-yl)methyl)-4-(difluoromethoxy)-1-methyl-1H-benzo[d]imidazol-6-yl)-1,3,4-oxadiazol-2 (3H)-one]
< 10	> 85	COc1cc(C(=O)O)cc2c1nc(CN1CCC(c3cccc4c3O[C@@H](c3ccc(Cl)cc3F)CO4)CC1)n2C [Compound 268, (S)-2-((4-(3-(4-Chloro-2-fluorophenyl)-2,3-dihydrobenzo[b][1,4]dioxin-5-yl)piperidin-1-yl)methyl)-4-methoxy-1-methyl-1H-benzo[d]imidazole-6-carboxylic acid]
